# In patent US11383008B2, “Surface-modified polymeric substrates grafted with a properties-imparting compound using clip chemistry” (Centre National de la Recherche Scientifique (CNRS), priority 2016, dated 2022):
# Experiment: Stability of MRI-visibility of grafted substrates after incubation in PBS
# Type: physicochemical
# Details: grafted on substrates (PP meshes, thread-like shape); two months in PBS medium (pH=7.4) at 37° C.; FIG. 9C
# Procedure: Bruker 7T BIOSPEC 70/20, “mini-imaging” configuration (gradient BGA12 675 mt/m, resonator “bird cage” 35 mm). After a set of marker gradient echo sequences, a spin3D echo sequence was acquired (FOV 3*3*1 cm matrix 128*128*48, TR=3000 ms, TE=8 ms (TEeff=16), RF=8, acquisition time of 0:51) with an inversion delay of 1300 ms.
# MGE 3D sequences with TR/TE 110/3 ms and angles of 75, 30 and 15° were acquired.
# Stability of MRI-visibility for PP modified meshes after 2 months in saline phosphate buffer (pH 7.4, 37° C.) is shown in FIG. 9C.
substance,measurement,value
4-Azidoaniline Modified Gd-Diethylene Triamine Pentaacetic Acid (Gd-DTPA-biN3) Complex,MRI image after incubation (stability of MRI-visibility),does not show any image degradation
